This is an account of results in PubChem BioAssay AID1996.

≈ marks a conversion by molar mass, not a printed value.

For this data set the following is noted: buffer; pH 7.4; 200.0 µM.
On to `CC1=NOC(=O)/C1=C\c1ccccc1`, for which the kinetic solubility was determined as 24.4 µg/mL (≈ 130 µM). In turn, `COc1ccc(CCN2C(=O)C(C)=C(C)C2=O)cc1OC` returned a kinetic solubility of more than 43.4 µg/mL. Next, `Cc1nc(NC(=O)C2CC2)sc1C(=O)Nc1ccccc1`: 3.8 µg/mL (≈ 12.6 µM); `Fc1ccc(OCCn2cnc(Cl)c2Cl)cc1`: 29.7 µg/mL (≈ 108 µM); `O=C(N[C@@H]1C[C@H]2CC[C@@H]1C2)c1ccco1`: 29.8 µg/mL (≈ 145 µM). With `O=C(OCC(=O)c1ccc(Cl)s1)c1cncc(Br)c1` the figure was 17.5 µg/mL (≈ 48.5 µM); with `Cc1ccc(N=C(NO)c2cnccc2C(F)(F)F)c(C)c1`, more than 46.4 µg/mL. The compound `O=C(COc1ccc2ccccc2c1)Nc1cccnc1Cl` displayed a solubility (kinetic) of less than 0.3 µg/mL. As for `COc1cccc(Nc2ccc([N+](=O)[O-])c3nonc23)c1`, the kinetic solubility was determined as 5.2 µg/mL (≈ 18.2 µM). The compound `CCC(=O)Nc1nc2ccc([N+](=O)[O-])cc2s1` displayed a solubility (kinetic) of 0.9 µg/mL (≈ 3.58 µM).

Compound `Cc1c(N)cccc1-n1cccc1` had a kinetic solubility of 20 µg/mL (≈ 116 µM).

In turn, `COc1ccccc1NC(=O)COC(=O)Cn1cnc2c1c(=O)n(C)c(=O)n2C` showed a solubility (kinetic) of more than 60.2 µg/mL. Compound `COc1cccc(C(=O)NOCc2ccccc2)c1OC` yielded a kinetic solubility of more than 43.1 µg/mL. As for `O=C(OCC(=O)N1CCC(Cc2ccccc2)CC1)c1ccccc1O`, the kinetic solubility was determined as 2.2 µg/mL (≈ 6.22 µM). Next, `CCC(=O)Nc1sc2c(c1C#N)CCC2`: 12.3 µg/mL (≈ 55.8 µM); `Cc1oc(-c2ccoc2)nc1CN(CC1CCC(=O)N1)C(C)C` (stereo not given): 38.8 µg/mL (≈ 122 µM). Next, `COc1ccccc1NC(=O)CCSc1nc(C)cc(C)n1`: 38.4 µg/mL (≈ 121 µM); `Cc1occc1C(=O)Nc1ccc(OCc2ccccc2)cc1`: 2.1 µg/mL (≈ 6.83 µM); `CCOC(=O)N1CCN(S(=O)(=O)c2ccc(C)cc2)C1`: 38 µg/mL (≈ 127 µM). The compound `COc1ccc(NC(=O)C(=O)Nc2cccc3cccnc23)cc1OC` had a kinetic solubility of less than 0.3 µg/mL. Next, `O=C(Nc1cccc(F)c1)Nc1ccc2c(c1)C(=O)OC2`: less than 0.3 µg/mL; `COc1ccc(NC(=O)CCC(=O)c2cccs2)cc1Cl`: 6.5 µg/mL (≈ 20.1 µM); `COCCNCC(=O)N1CCCCCC1.O=C(O)C(=O)O`: more than 45.7 µg/mL. Next, `O=C(Nc1ccc(-c2ccccc2)cc1)c1ccco1`: 22.4 µg/mL (≈ 85.1 µM).

On to `N#Cc1ccccc1NC(=O)COC(=O)CN1C(=O)C2CCCCC2C1=O` (stereo not given), for which the kinetic solubility was more than 55.4 µg/mL. As to `COCCC(=O)Nc1ccc2c(c1)CN(C(=O)CSC)CC2`, the solubility (kinetic) was more than 48.4 µg/mL.

In the case of `CC(=O)Nc1ccc(NC(=O)CCCc2ccccc2)cc1`, the solubility (kinetic) worked out at 22.9 µg/mL (≈ 77.3 µM).

Take `N#C/C(C(N)=O)=C1/SC=C(c2ccccc2)N1c1ccccc1`: the kinetic solubility came out at 0.4 µg/mL (≈ 1.25 µM). Next, `CC1CC(C)CN(C(=O)CSc2n[nH]c(N)n2)C1` (stereo not given): more than 40.4 µg/mL; `CCc1ccc(N2C(=O)CC(=O)NC2=O)cc1`: more than 34.8 µg/mL. `O=C(COC(=O)c1ccccn1)Nc1cccc2ccccc12` came in with a solubility (kinetic) of more than 45.9 µg/mL. Next, `Cc1cnc(C(=O)NCC(c2ccccc2)c2ccccc2)cn1`: 0.8 µg/mL (≈ 2.52 µM).

As for `COc1ccc(CSc2nc3ccccc3c(=O)[nH]2)cc1F`, the kinetic solubility is 1.3 µg/mL (≈ 4.11 µM). As to `O=C(NCC(=O)N1CC=C(c2ccccc2)CC1)c1ccc(F)cc1`, the solubility (kinetic) was found to be 9 µg/mL (≈ 26.6 µM). Compared with the last compound, the solubility kinetic is about 6.9-fold higher.

For `CC(=O)N1CCN(c2nc(N)c(C#N)c(CC#N)c2C#N)CC1`, the kinetic solubility was more than 46.4 µg/mL. Next, `CNc1snc(C)c1C(=O)OC(C)C(=O)Nc1ccc(F)cc1` (stereo not given): more than 50.6 µg/mL; `Cn1c(-c2ccccc2)c[n+]2c1CCCCC2.[Br-]`: more than 46.1 µg/mL; `O=C1C2CCCN2C(c2ccco2)N1c1ccc(F)cc1` (stereo not given): more than 42.9 µg/mL. As to `c1csc(-c2noc(CN3CCc4sccc4C3)n2)c1`, the solubility (kinetic) turned out to be 27.3 µg/mL (≈ 90 µM). As to `CCOC(=O)c1sc(=NC(=O)c2ccccc2)n(C)c1C`, the solubility (kinetic) was determined as 0.4 µg/mL (≈ 1.31 µM). With `CN1C(=O)c2cccc3c(N(C)C)ccc(c23)C1=O` the figure was 5.9 µg/mL (≈ 23.2 µM); with `Oc1ccc(-c2csc(Nc3ccccn3)n2)c(O)c1`, 4.4 µg/mL (≈ 15.4 µM). With `O=C(NCCN1CCCCC1)Nc1cccc(C(F)(F)F)c1` the figure was more than 47.3 µg/mL; with `CC1CCN(C(=O)CN(c2cccc(F)c2)S(C)(=O)=O)CC1`, more than 49.3 µg/mL.

Consider `CC(C)(C)c1ccccc1OCC(=O)NCCCn1ccnc1`, for which the kinetic solubility is more than 47.3 µg/mL. With `O=C(O)Cc1ccc(NC(=O)Nc2cccc3ccccc23)cc1` the figure was 45.1 µg/mL (≈ 141 µM); with `CCN(Cc1ccccc1)S(=O)(=O)c1ccc(OC)c2ncccc12`, more than 53.5 µg/mL. With `COCCN(CCOc1cc(C)cc(C)c1)Cc1ccc(Cl)cc1` the figure was 5.6 µg/mL (≈ 16.1 µM); with `COc1ccccc1OCCNC(=O)C1CCCCC1`, 33.8 µg/mL (≈ 122 µM). In turn, `COC(=O)Cn1cc(C=C2C(=O)NC(=O)NC2=O)c2ccccc21` displayed a kinetic solubility of 8.6 µg/mL (≈ 26.3 µM).

Compound `COc1ccc(OCCCN2CCc3ccccc3C2)cc1.Cl` displayed a solubility (kinetic) of 36.5 µg/mL. Next, `CN(C(=O)CSc1nnnn1C)C1(C#N)CCCCC1`: more than 44.2 µg/mL; `CC1CCCCN1C(=O)CCn1c(=O)oc2ccccc21` (stereo not given): more than 43.3 µg/mL. Next, `CCCC(CCC)C(=O)OC1C[C@H]2CC[C@@H](C1)[N+]2(C)C.[Br-]` (stereo not given in full): more than 54.4 µg/mL; `Cc1cc(NS(=O)(=O)c2ccc(NC(=O)C3CCCCC3)cc2)no1`: 44.1 µg/mL (≈ 121 µM); `COc1cccc(CN(C)C(=O)c2sccc2-c2ccccc2)c1OC`: 34.6 µg/mL (≈ 94.2 µM). With `COc1ccccc1NC(=O)CCNC(=O)c1ccc(C)cc1` the figure was more than 46.9 µg/mL; with `Cc1ccc(NS(=O)(=O)c2ccc(Cl)s2)nc1`, 33.6 µg/mL (≈ 116 µM). In the case of `O=[N+]([O-])c1ccc2ncnc(Nc3ccc4c(c3)OCCO4)c2c1`, the solubility (kinetic) was 0.2 µg/mL (≈ 0.617 µM).

`Cc1cc(NC(=O)Cc2cc(F)cc(F)c2)no1` registered a kinetic solubility of 7.5 µg/mL (≈ 29.7 µM). With `CC(=O)N(CCC1(C(C)C)CCOC(C)(C)C1)C(C)c1cccs1` (stereo not given) the figure was 51.1 µg/mL (≈ 145 µM); with `Cc1ccc(N(CC2CO2)S(=O)(=O)c2ccccc2[N+](=O)[O-])cc1` (stereo not given), 36.7 µg/mL (≈ 105 µM). Next, `O=C(COC(=O)c1ccc(F)c(S(=O)(=O)N2CCOCC2)c1)NCc1ccccc1`: more than 65.5 µg/mL.

`Cn1cccc1C(=O)NC1CCCCC1` gave a solubility (kinetic) of more than 30.9 µg/mL.

For the compound `CN(Cc1ccccc1)C(=O)c1ccccc1C(=O)OCC(=O)N(Cc1ccccc1)C(C)(C)C`, the solubility (kinetic) was 25.7 µg/mL (≈ 54.4 µM). Next, `CCC1CCCCN1Cc1ccc(N)cc1` (stereo not given): more than 32.8 µg/mL. With `CCn1c(SCC(=O)Nc2ccc(C)cc2)nc(O)cc1=O` the figure was more than 47.9 µg/mL; with `COc1cccc(NC(=O)C2CCCN(S(C)(=O)=O)C2)c1` (stereo not given), more than 46.9 µg/mL; with `Cc1ccc(C(=O)OCC(=O)N2CC(C)OC(C)C2)cc1` (stereo not given), more than 43.7 µg/mL. `COc1ccc(OCCNC(=O)c2ccccc2Cl)cc1`: the solubility (kinetic) was more than 45.9 µg/mL. Next, `NS(=O)(=O)c1ccc(NC(=S)NC(=O)C2CCCC2)cc1`: more than 49.1 µg/mL; `Cc1cccc(S(=O)(=O)NC2CCCCCCC2)c1`: 25.2 µg/mL (≈ 89.5 µM). Compound `N#Cc1c(F)cccc1NCc1cccs1` registered a solubility (kinetic) of 1.3 µg/mL (≈ 5.6 µM). On to `COc1ccc(OC)c(NC(=O)Nc2cnccn2)c1`, for which the solubility (kinetic) worked out at 3.3 µg/mL (≈ 12 µM). Next, `Cc1cc(C)n(-c2cc(C(=O)O)cc(C(=O)O)c2)n1`: more than 39 µg/mL. Compound `COC(=O)CC1C(=O)NCCN1C(=O)Nc1cccc(Cl)c1` (stereo not given) had a solubility (kinetic) of 48.8 µg/mL (≈ 150 µM). `O=S1(=O)CCC(NS(=O)(=O)c2ccc3ccccc3c2)C1` (stereo not given) registered a kinetic solubility of more than 48.8 µg/mL. With `Cc1ccc(OCC(=O)N2CC(C)CC(C)C2)c([N+](=O)[O-])n1` (stereo not given) the figure was more than 46.1 µg/mL. With `COc1ccc(C2(O)C(=O)Nc3ccc(C)cc32)cc1OC` (stereo not given) the figure was more than 44.9 µg/mL; with `COc1ccccc1C(=O)Nc1cccc(C(=O)c2ccccc2)c1`, 3.5 µg/mL (≈ 10.6 µM); with `O=C(CCc1c[nH]c2ccccc12)NCCOc1ccccc1`, 43.7 µg/mL (≈ 142 µM). With `O=C1CC(c2ccco2)Sc2ccccc2N1` (stereo not given), the kinetic solubility was more than 36.8 µg/mL. In turn, `Cc1ccc(NC(=O)COC(=O)C2CC2(Cl)Cl)cc1C` (stereo not given) displayed a kinetic solubility of 47.1 µg/mL (≈ 149 µM). Take `CC(=O)Nc1ccc2nc(NC(=O)CCc3ccccc3)sc2c1`: the solubility (kinetic) came to 0.7 µg/mL (≈ 2.06 µM). With `CCCn1c(=O)c2[nH]cnc2n(-c2ccccc2C)c1=O` the figure was more than 42.6 µg/mL. `CCC1C(=O)N=C(SCC(=O)Nc2nc3ccccc3s2)NC1=O` (stereo not given) yielded a kinetic solubility of more than 54.4 µg/mL. The compound `O=C(Nc1ccc(-c2cnco2)cc1)c1ccc(F)cc1F` returned a kinetic solubility of 0.8 µg/mL (≈ 2.66 µM). With `O=C(Nc1nc2ccsc2c(=O)s1)c1ccc(Cl)cc1` the figure was less than 0.3 µg/mL. With `Cc1cccc(C)c1NC(=S)N1CC(C)OC(C)C1` (stereo not given) the figure was more than 41.8 µg/mL. Next, `CC(C)(C)N(Cc1ccccc1)C(=O)COC(=O)C1CC1`: more than 43.4 µg/mL. The compound `COCCCN(CC(=O)Nc1ccc(F)cc1)S(=O)(=O)c1cccs1` returned a kinetic solubility of more than 58 µg/mL.

With `Brc1ccc(-c2noc(-c3ccccn3)n2)o1`, the solubility (kinetic) came out at 10.8 µg/mL (≈ 37 µM).

Turning to `CC(=O)N1CCN(Cc2nc3cc([N+](=O)[O-])ccc3n2C)CC1`, the solubility (kinetic) amounted to 45.1 µg/mL (≈ 142 µM). This solubility kinetic is about 4.2-fold higher than that of the compound before. On to `Nc1nc(NCCOCCO)nc(NC2CCCCC2)c1[N+](=O)[O-]`, for which the kinetic solubility was more than 51.1 µg/mL. With `CN(C)/C=N/c1ncc(C(=O)c2ccc(Cl)cc2Cl)s1` the figure was 41.6 µg/mL (≈ 127 µM); with `O=C(c1cc2cc(Br)ccc2[nH]1)N1CCc2ccccc21`, less than 0.4 µg/mL; with `COc1ccc(CNc2cc(C)ccn2)c(O)c1`, 29.9 µg/mL (≈ 122 µM). With `NC(=O)/C(=C\c1cccnc1)NC(=O)c1ccccc1` the figure was more than 40.1 µg/mL. With `Cc1cc(-c2onc(C)c2C(=O)Nc2ccc(C(F)(F)F)cc2)no1` the figure was less than 0.3 µg/mL; with `CCCn1c(=O)c2c(nc3n2CCCN3Cc2ccccc2)n(C)c1=O`, 17.6 µg/mL (≈ 49.8 µM). For the compound `CCOC(=O)c1sc2nc(C)nc(NCc3ccccc3)c2c1C`, the solubility (kinetic) was 0.3 µg/mL (≈ 0.879 µM). `CN(CC(=O)N1CCN(Cc2ccccc2)CC1)C(=O)Cc1ccc(Cl)c(Cl)c1`: the kinetic solubility is 61.7 µg/mL (≈ 142 µM).

The compound `Cc1ccccc1NC(=S)NC1CCCC1` came in with a kinetic solubility of 34.9 µg/mL (≈ 149 µM).

`Cc1ccc(O)c(CNc2cccc3cccnc23)c1` came in with a kinetic solubility of 2.9 µg/mL (≈ 11 µM).

The compound `CCCc1nc2ccc(N)cc2c(=O)n1Cc1ccccc1Cl` gave a solubility (kinetic) of 13 µg/mL (≈ 39.7 µM).

The kinetic solubility is the concentration staying in solution when a stock, usually in DMSO, is diluted into the medium.
